Source: patent US20260158149A1, “GLYCOSYLATED PRODRUGS” (UNIVERSITEIT LEIDEN, priority 2021, published 2026)
“Also recorded” adds a separate entry of the source.

Assays:
[1] = tested on: neutrophils migrated to the wounded area; test: Tail fin amputation assay: neutrophil migration to the wounded area; assay type: in vivo, Zebrafish (Danio rerio); details: for reduction in neutrophil migration in the presence of MZ31: GBA2 inhibitor MZ31; for inhibition of neutrophil migration in Gr deficient larvae: gr mutant line (gr-/-); for migration of neutrophils towards the wounded area: wild type larvae, 4 h after tail wounding
Procedure: Zebrafish (Danio rerio) were maintained and handled according to the guidelines from the Zebrafish Model Organism Database (https://zfin.org/) and in compliance with the directives of the local animal welfare committee of Leiden University. To maintain circadian rhythmicity, adult fish were exposed to a 14 h light and 10 h dark cycle. Fertilization was performed by natural spawning at the beginning of the light period. Fertilized eggs were collected and raised at 28° C. in egg water (60 μg/ml Instant Ocean sea salts and 0.0025% methylene blue). The following zebrafish lines were used in this study: AB/TL wild type, the transgenic lines Tg(mpx:GFP^i114/mpeg1:mCherry^umsF001) (Bernut et al., (2014). Mycobacterium abscessus cording prevents phagocytosis and promotes abscess formation. Proc Natl Acad Sci USA 111, E943-952; Renshaw et al., (2006). A transgenic zebrafish model of neutrophilic inflammation. Blood 108, 3976-3978), and Tg(9xGCRE-HSV.UI123:EGFP)^ia20 (Benato et al., (2014). A living biosensor model to dynamically trace glucocorticoid transcriptional activity during development and adult life in zebrafish. Mol Cell Endocrinol 392, 60-72), and the mutant lines gba2^−/− (Lelieveld et al., (2019). Role of beta-glucosidase 2 in aberrant glycosphingolipid metabolism: model of glucocerebrosidase deficiency in zebrafish. J Lipid Res 60, 1851-1867) and gr^s357 (Ziv et al., (2013). An affective disorder in zebrafish with mutation of the glucocorticoid receptor. Mol Psychiatry 18, 681-691).
(§1) For the tail fin amputation experiments, 3 days post fertilization (dpf) larvae from the Tg(mpx:GFP^i114/mpeg1:mCherry^umsF001) line were anesthetized in 0.02% buffered aminobenzoic acid ethyl ester (tricaine) in egg water and placed on a 2% agarose-coated petri dish. The tails were partially amputated with a 1 mm sapphire blade (World Precision Instruments) under a Leica M165C stereomicroscope (Leica Microsystems, Wetzlar, Germany). Chemical treatment (or 0.1% DMSO as vehicle treatment) was started at 2 h before the amputation (pretreatment) and was continued for 4 h after the tail fin amputation (20 larvae per group, unless indicated otherwise), at which time point the larvae were fixed in 4% paraformaldehyde (PFA) overnight at 4° C. and stored at 4° C. until further examination. In some experiments, a 24 h treatment with miglustat, ME656 or MZ31 was started at 2 dpf, and these treatments were continued during the pretreatment and treatment with the other chemicals. For imaging of larvae from the Tg(mpx:GFP^i114/mpeg1:mCherry^umsF001) line, a LeicaMZ16FA fluorescence stereomicroscope with LAS 3.7 software was used. Neutrophils were detected by GFP fluorescence and macrophages by mCherry fluorescence. The neutrophil numbers were determined by blinded manual counting in a pre-determined area. When larvae from gba2^−/− or gr^s357mutant lines were used, neutrophil labeling was performed with the TSA fluorescein detection kit (PerkinElmer) for specific staining of Myeloperoxidase (Mpx)-positive cells, following the manufacturer's instructions.

[2] = tested on: macrophages migrated to the wounded area; test: Tail fin amputation assay: macrophage migration; assay type: in vivo, Zebrafish (Danio rerio); details: wild type larvae, 4 h after wounding
Procedure: Zebrafish (Danio rerio) were maintained and handled according to the guidelines from the Zebrafish Model Organism Database (https://zfin.org/) and in compliance with the directives of the local animal welfare committee of Leiden University. To maintain circadian rhythmicity, adult fish were exposed to a 14 h light and 10 h dark cycle. Fertilization was performed by natural spawning at the beginning of the light period. Fertilized eggs were collected and raised at 28° C. in egg water (60 μg/ml Instant Ocean sea salts and 0.0025% methylene blue). […]
For the tail fin amputation experiments, 3 days post fertilization (dpf) larvae from the Tg(mpx:GFP^i114/mpeg1:mCherry^umsF001) line were anesthetized in 0.02% buffered aminobenzoic acid ethyl ester (tricaine) in egg water and placed on a 2% agarose-coated petri dish. […] For imaging of larvae from the Tg(mpx:GFP^i114/mpeg1:mCherry^umsF001) line, a LeicaMZ16FA fluorescence stereomicroscope with LAS 3.7 software was used. Neutrophils were detected by GFP fluorescence and macrophages by mCherry fluorescence. The neutrophil numbers were determined by blinded manual counting in a pre-determined area. […]

[3] = tested on: il1b, il6, mmp9, mmp13, il8 mRNA; test: qPCR of pro-inflammatory genes after tail wounding; assay type: in vivo, Zebrafish (Danio rerio)
Source text: as §1
(§2) For experiments in zebrafish, gene expression was measured using 3 dpf embryos. Groups of 15 larvae were collected in TRIzol reagent (Invitrogen) and mRNA was isolated using the miRNeasy mini kit (Qiagen), according to the manufacturer's instructions. For experiments in HeLa cells, samples were collected from a single well from 6 well plates (80% confluent) in TRIzol reagent and mRNA was isolated using the RNeasy mini kit. Zebrafish and cells samples were treated with DNAse utilizing the DNA-Free™ kit (Ambion). The cDNA synthesis was performed using iScript cDNA synthesis kit (Bio-Rad) using 1 μg of RNA per sample. For qPCR, 10 μM of forward and 10 μM of reverse primer, 12.5 μL of iQ SYBR Green Supermix (Bio-Rad), and 2 μL of cDNA were added to the qPCR reaction mixture. […] The qPCR reactions were performed on a MyiQ-single-color real-time PCR detection system (Bio-Rad) with initial denaturation for 3 min at 95° C. and 40 cycles of 15 s at 95.5° C., 15 s at 60° C., and 30 s at 72° C. Cycle threshold values (Ct values, i.e. the cycle numbers at which a threshold value of the fluorescence intensity was reached) were determined for each sample. The gene expression level for each sample was normalized using the expression of ppial (peptidylprolyl isomerase Ab (cyclophilin A)) for zebrafish samples, and 18S rRNA for human cells. The fold change per sample (compared to the respective control group) was calculated using the ΔΔCt method.

Gr = test: Transactivation activity of Gr in Tg(9xGCRE-HSV.UI23:EGFP) reporter line; assay type: in vivo, Zebrafish (Danio rerio); details: 24 h treatment, 3 dpf larvae
Procedure: The Tg(9xGCRE-HSV.UI23:EGFP)^ia20 zebrafish reporter line expresses enhanced green fluorescent protein (EGFP) under the control of a promoter containing an array of nine GREs. To study the effect of chemical treatments on the transactivation activity of the Gr, 15 zebrafish embryos per group (2 dpf) were treated with the indicated compounds for 24 hours. The transactivation activity of Gr induced by the treatments was assessed using a LeicaMZ16FA fluorescence stereomicroscope supported by LAS 3.7 software. The integrated intensity of the EGFP signal in the larvae was determined using ImageJ software.

[4] = tested on: Gr target genes fkbp5, pck1 and nfkbiaa; test: qPCR of Gr target genes fkbp5, pck1, nfkbiaa; assay type: in vivo, Zebrafish (Danio rerio)
Procedure: as §2

[5] = Whole-body glucose measurement in larvae; details: 5 dpf larvae treated from 2 hpf, non-wounded
Procedure: Zebrafish embryos at 2 hpf received a chemical treatment, as indicated, with daily refreshment of the solutions, until 5 dpf. At 5 dpf, the larvae were collected in an Eppendorf tube and 100 μL of ice-cold glucose buffer was added to each sample. The larvae were homogenized using a BulletBlender® for 3 min at 8,000 rpm. The homogenates were then centrifuged at 4° C. for 8 min at 11000 rpm and the supernatant was stored at −20° C. Whole-body glucose concentrations were determined using a Glucose Colorimetric Assay kit (Cayman Chemical, USA), according to the manufacturer's instructions. In each experiment, three biological replicates were used for each treatment group, and the colorimetric assay was performed using technical duplicates.

[6] = Whole-body cortisol measurement using ELISA; details: 5 dpf larvae treated from 2 hpf, non-wounded
Procedure: Zebrafish embryos at 2 hpf received a chemical treatment, as indicated, with daily refreshment of the solutions, until 96 hpf. Then, the treatments were stopped and embryos were incubated in egg water until 5 dpf to avoid cross-reactivity with the compounds of the cortisol antibody used in the ELISA. Then, the treatments were stopped and replaced with egg water. At 5 dpf, the larvae were collected in an Eppendorf tube and 100 μL of ice-cold phosphate-buffered saline (PBS) was added. The larvae were homogenized using a BulletBlender® for 3 min at 8,000 rpm. Ethyl acetate was added to the homogenate and the supernatant was gathered and vaporized. A volume of 150 μl of 0.2% Bovine serum albumin (Sigma Aldrich) dissolved in phosphate-buffered saline (PBS) was added to the samples and frozen. Whole-body cortisol of the zebrafish larvae was determined by ELISA (Demeditec Diagnostics GmbH, Kiel-Wellsee, Germany), following the manufacturer's instructions. In each experiment, three biological replicates were used for each treatment group, and the colorimetric assay was performed using technical duplicates.

regenerated tail fin = test: Regeneration of the tail fin after wounding; assay type: in vivo, Zebrafish (Danio rerio); details: 5 dpf larvae, wounded at 2 dpf
Procedure: (§3) When the regeneration of the tail fins after wounding or the larval body length was used as a readout, chemical treatments of the embryos were started at 2 hours post fertilization (hpf) and continued until 5 dpf. During this period, solutions were refreshed daily. At 5 dpf, larvae were imaged using a LeicaMZ16FA fluorescence stereomicroscope supported by LAS 3.7 software, and the length of the larvae was measured using ImageJ software (15 larvae per treatment group). For the regeneration experiments, tail fins were amputated at 2 dpf and larvae were imaged at 5 dpf (15 larvae per treatment group). The newly grown tissue can be distinguished from the old tissue, enabling precise measurement of the size of the newly grown tissue using ImageJ software.

Larval body length = assay type: in vivo, Zebrafish (Danio rerio); details: 5 dpf, treatment from 2 hpf
Procedure: as §3

whole body glucose level [5]	SMILES	reduction in neutrophil migration in the presence of MZ31 [1]	inhibition of neutrophil migration in Gr deficient larvae [1]	migration of neutrophils towards the wounded area [1]	migration of macrophages [2]	wounding-induced increase in expression of il1b, il6, mmp9 and mmp13 [3]	transactivation activity of Gr (GFP signal in GRE:GFP reporter fish line) (Gr)	expression of Gr target genes fkbp5, pck1 and nfkbiaa [4]	whole body cortisol level [6]	wounding-induced increase in expression of il1b, il6 and mmp9 [3]	tissue regeneration (length of regenerated tail fin) (regenerated tail fin)	reduction in neutrophil migration in the presence of miglustat ([1]; non-specific GBA inhibitor miglustat)	larval length (Larval body length)
did not increase the glucose level	C[C@@H]1C[C@H]2[C@@H]3CCC4=CC(=O)C=C[C@]4(C)[C@@]3(F)[C@@H](O)C[C@]2(C)[C@@]1(O)C(=O)CO[C@@H]1O[C@H](C(=O)O)[C@@H](O)[C@H](O)[C@H]1O [GDex, dexamethasone-glucuronide]	independent of GBA2 activity	absent	inhibits neutrophil migration; also recorded: inhibited the neutrophil migration	without any effect on macrophage migration	strongly reduced	did not induce the transactivation activity of the Gr	did not induce the transactivation activity of the Gr	very minor decrease in cortisol level; also recorded: only slightly reduced the cortisol concentrations	–	–	–	–
increased the glucose concentration	C[C@H]1C[C@H]2[C@@H]3CCC4=CC(=O)C=C[C@]4(C)[C@@]3(Cl)[C@@H](O)C[C@]2(C)[C@@]1(O)C(=O)CO [Bec, beclomethasone]	–	absent	decreases the migration of neutrophils; also recorded: inhibits neutrophil migration; also recorded: inhibited the neutrophil migration	leaves the migration of macrophages unaffected	–	large increase in GFP signal	–	decrease in cortisol level; also recorded: decreased the cortisol level; also recorded: significantly larger decrease	strongly suppressed	decrease	–	–

SMILES	whole body glucose level [5]	reduction in neutrophil migration in the presence of MZ31 [1]	inhibition of neutrophil migration in Gr deficient larvae [1]	migration of neutrophils towards the wounded area [1]	migration of macrophages [2]	wounding-induced increase in expression of il1b, il6, mmp9 and mmp13 [3]	transactivation activity of Gr (GFP signal in GRE:GFP reporter fish line) (Gr)	expression of Gr target genes fkbp5, pck1 and nfkbiaa [4]	whole body cortisol level [6]	wounding-induced increase in expression of il1b, il6 and mmp9 [3]	tissue regeneration (length of regenerated tail fin) (regenerated tail fin)	reduction in neutrophil migration in the presence of miglustat ([1]; non-specific GBA inhibitor miglustat)	larval length (Larval body length)
CC(C)=CCCC(C)(O)[C@H]1CC[C@]2(C)[C@@H]1[C@H](O)C[C@@H]1[C@@]3(C)CC[C@H](O)C(C)(C)[C@@H]3CC[C@]12C (stereo in doubt) [PPD, Protopanaxadiol]	did not affect the glucose level	did not affect the action of PPD	the inhibition of neutrophil migration was abolished	–	–	–	did not cause an increase in the fluorescence intensity	did not increase the expression	did decrease the cortisol concentration	strongly suppressed	did decrease	did not affect the action of PPD	did decrease
